According to patent US8877707B2, “Inhibitors of HCV NS5A” (Presidio Pharmaceuticals, Inc., priority 2010, dated 2014):

Each molecule was assayed on HCV genotype 1b replicon in Huh 7 cells (assay: HCV replicon assay (1b_Huh-Luc/Neo-ET cell line, luciferase readout)). Conditions: Hepatitis C virus, Huh-7, 72 h, read-out: Inhibition of HCV genotype 1b.
Format: cell-based
Description: Biological activity of the compounds of the invention was determined using an HCV replicon assay. The 1b_Huh-Luc/Neo-ET cell line persistently expressing a bicistronic genotype 1b replicon in Huh 7 cells was obtained from ReBLikon GMBH. This cell line was used to test compound inhibition using luciferase enzyme activity readout as a measurement of compound inhibition of replicon levels.
On Day 1 (the day after plating), each compound is added in triplicate to the cells. Plates incubated for 72 h prior to running the luciferase assay. Enzyme activity was measured using a Bright-Glo Kit (cat. number E2620) manufactured by Promega Corporation. The following equation was used to generate a percent control value for each compound. % Control=(Average Compound Value/Average Control)*100
The EC50 value was determined using GraphPad Prism and the following equation: Y=Bottom+(Top−Bottom)/(1+10^((Log IC50−X)*HillSlope))
EC50 values of compounds are repeated several times in the replicon assay.

Structure (SMILES)	EC50 [nM]
CNC(=O)N[C@@H](C(=O)N1CCC[C@H]1c1nc(-c2ccc3cc(-c4ccc(-c5cnc([C@@H]6CCCN6C(=O)[C@@H](NC(=O)OC)C(C)C)[nH]5)cc4)ccc3c2)c[nH]1)c1ccccc1 [14s]	< 1

Same assay, conditions: Hepatitis C virus; Table 1; genotype 1b replicon, Huh 7 cells, 72 h, luciferase; read-out: Inhibition of HCV genotype 1b

Structure (SMILES)	EC50 [nM]
COC(=O)N[C@H](C(=O)N1CCC[C@H]1c1ncc(-c2ccc3nc(-c4ccc5c(c4)CCc4nc([C@@H]6CCCN6C(=O)[C@@H](NC(=O)OC)C(C)C)[nH]c4-5)ccc3c2)[nH]1)C(C)C [292-1]	< 1
COC(=O)N[C@H](C(=O)N1CCC[C@H]1c1nc2c([nH]1)-c1ccc(-c3ccc4cc(-c5cnc([C@@H]6CCCN6C(=O)[C@@H](NC(=O)OC)C6CCOCC6)[nH]5)ccc4n3)cc1CC2)C(C)C [293-1]	< 1
COC(=O)N[C@H](C(=O)N1CCC[C@H]1c1nc2c([nH]1)-c1ccc(-c3ccc4cc(-c5cnc([C@@H]6CCCN6C(=O)[C@H](NC(=O)OC)c6ccccc6)[nH]5)ccc4n3)cc1CC2)C(C)C [294-1]	< 1
COC(=O)N[C@H](C(=O)N1CCC[C@H]1c1nc2c([nH]1)-c1ccc(-c3ccc4cc(-c5cnc([C@@H]6CCCN6C(=O)[C@H](NC(=O)OC6CCOCC6)c6ccccc6)[nH]5)ccc4n3)cc1CC2)C(C)C [295-1]	< 1
COC(=O)N[C@H](C(=O)N1CCC[C@H]1c1nc(-c2ccc3cc(-c4ccc(-c5cnc([C@@H]6CCCN6C(=O)[C@@H](NC(=O)OC)C(C)C)[nH]5)cc4)ccc3c2)c[nH]1)C(C)C [compound 1]	< 1
COC(=O)N[C@@H](C(=O)N1CCC[C@H]1c1nc(-c2ccc3cc(-c4ccc(-c5cnc([C@@H]6CCCN6C(=O)[C@H](NC(=O)OC)C(C)C)[nH]5)cc4)ccc3c2)c[nH]1)C(C)C [compound 2]	1 to 9.9
COC(=O)N[C@H](C(=O)N1CCC[C@H]1c1nc(-c2ccc3cc(-c4ccc(-c5cnc([C@@H]6CCCN6C(=O)[C@@H](NC(=O)OC)[C@@H](C)OC)[nH]5)cc4)ccc3c2)c[nH]1)[C@@H](C)OC [compound 3]	< 1
COC(=O)N[C@H](C(=O)N1CCC[C@H]1c1nc(-c2ccc3cc(-c4ccc(-c5cnc([C@@H]6CCCN6C(=O)[C@@H](NC(=O)OC)[C@@H](C)O)[nH]5)cc4)ccc3c2)c[nH]1)[C@@H](C)O [compound 4]	< 1
COC(=O)N[C@H](C(=O)N1CCC[C@H]1c1nc(-c2ccc3cc(-c4ccc(-c5cnc([C@@H]6CCCN6C(=O)[C@@H](c6ccccc6)N(C)C)[nH]5)cc4)ccc3c2)c[nH]1)C(C)C [compound 5]	< 1
COC(=O)N[C@H](C(=O)N1CCC[C@H]1c1ncc(-c2ccc(-c3ccc4cc(-c5c[nH]c([C@@H]6CCCN6C(=O)[C@@H](c6ccccc6)N(C)C)n5)ccc4c3)cc2)[nH]1)C(C)C [compound 6]	< 1
COC(=O)N[C@H](C(=O)N1CCC[C@H]1c1ncc(-c2ccc(-c3ccc4cc(-c5c[nH]c([C@@H]6CCCN6C(=O)[C@H](NC(=O)OC)c6ccccc6)n5)ccc4c3)cc2)[nH]1)C(C)C [compound 7]	< 1
COC(=O)N[C@H](C(=O)N1CCC[C@H]1c1nc(-c2ccc3cc(-c4ccc(-c5cnc([C@@H]6CCCN6C(=O)[C@H](NC(=O)OC)c6ccccc6)[nH]5)cc4)ccc3c2)c[nH]1)C(C)C [compound 8]	< 1
COC(=O)N[C@H](C(=O)N1CCC[C@H]1c1ncc(-c2ccc(-c3ccc4cc(-c5c[nH]c([C@@H]6CCCN6C(=O)[C@@H](c6ccccc6)N6CCCC6)n5)ccc4c3)cc2)[nH]1)C(C)C [compound 9]	< 1
COC(=O)N[C@H](C(=O)N1CCC[C@H]1c1nc(-c2ccc3cc(-c4ccc(-c5cnc([C@@H]6CCCN6C(=O)[C@@H](c6ccccc6)N6CCCC6)[nH]5)cc4)ccc3c2)c[nH]1)C(C)C [compound 10]	< 1
COC(=O)N[C@H](C(=O)N1CCC[C@H]1c1nc(-c2ccc3nc(-c4ccc(-c5cnc([C@@H]6CCCN6C(=O)[C@@H](NC(=O)OC)C(C)C)[nH]5)cc4)cnc3c2)c[nH]1)C(C)C [compound 11]	< 1
COC(=O)N[C@H](C(=O)N1CCC[C@H]1c1ncc(-c2ccc(-c3cnc4ccc(-c5cnc([C@@H]6CCCN6C(=O)[C@@H](NC(=O)OC)C(C)C)[nH]5)cc4n3)cc2)[nH]1)C(C)C [compound 12]	1 to 9.9
COC(=O)N[C@H](C(=O)N1CCC[C@H]1c1nc(-c2ccc3cc(-c4ccc(-c5cnc([C@@H]6CCCN6C(=O)[C@@H](NC(=O)OC)C(C)C)[nH]5)cn4)ccc3c2)c[nH]1)C(C)C [compound 13]	< 1

Structure (SMILES)	EC50 [nM]
COC(=O)N[C@H](C(=O)N1CCC[C@H]1c1ncc(-c2ccc(-c3ccc4cc(-c5c[nH]c([C@@H]6CCCN6C(=O)[C@H](NC(=O)N6CC[C@H](O)C6)c6ccccc6)n5)ccc4c3)cc2)[nH]1)C(C)C [compound 15]	< 1
COC(=O)N[C@H](C(=O)N1CCC[C@H]1c1nc(-c2ccc3cc(-c4ccc(-c5cnc([C@@H]6CCCN6C(=O)[C@H](NC(=O)N6CC[C@H](O)C6)c6ccccc6)[nH]5)cc4)ccc3c2)c[nH]1)C(C)C [compound 16]	< 1
COC(=O)N[C@H](C(=O)N1CCC[C@H]1c1nc(-c2ccc3nc(-c4ccc(-c5cnc([C@@H]6CCCN6C(=O)[C@@H](NC(=O)OC)C(C)C)[nH]5)cc4)ncc3c2)c[nH]1)C(C)C [compound 17]	< 1
CNC(=O)N[C@@H](C(=O)N1CCC[C@H]1c1ncc(-c2ccc(-c3ccc4cc(-c5c[nH]c([C@@H]6CCCN6C(=O)[C@@H](NC(=O)OC)C(C)C)n5)ccc4c3)cc2)[nH]1)c1ccccc1 [compound 18]	< 1
COC(=O)N[C@H](C(=O)N1CCC[C@H]1c1nc(-c2cnc3cc(-c4ccc(-c5cnc([C@@H]6CCCN6C(=O)[C@@H](NC(=O)OC)C(C)C)[nH]5)cc4)ccc3c2)c[nH]1)C(C)C [compound 19]	< 1
COC(=O)N[C@H](C(=O)N1CCC[C@H]1c1ncc(-c2ccc(-c3cccc4c(-c5cnc([C@@H]6CCCN6C(=O)[C@@H](NC(=O)OC)C(C)C)[nH]5)cccc34)cc2)[nH]1)C(C)C [compound 20]	< 1
COC(=O)N[C@H](C(=O)N1CCC[C@H]1c1nc(-c2ccc3cc(-c4ccc(-c5cnc([C@@H]6CCCN6C(=O)[C@@H](NC(=O)OC)C(C)C)[nH]5)cc4)cnc3c2)c[nH]1)C(C)C [compound 21]	< 1
COC(=O)N[C@H](C(=O)N1CCC[C@H]1c1nc(-c2ccc3cc(-c4ccc(-c5cnc([C@@H]6CCCN6C(=O)[C@@H](NC(=O)OC)C(C)C)[nH]5)cc4)ncc3c2)c[nH]1)C(C)C [compound 22]	< 1
COC(=O)N[C@H](C(=O)N1CCC[C@H]1c1ncc(-c2ccc(-c3ccc4cc(-c5c[nH]c([C@@H]6CCCN6C(=O)[C@H](NC(=O)NC(C)(C)C)c6ccccc6)n5)ccc4c3)cc2)[nH]1)C(C)C [compound 23]	< 1
COC(=O)N[C@H](C(=O)N1CCC[C@H]1c1nc(-c2ccc3cc(-c4ccc(-c5cnc([C@@H]6CCCN6C(=O)[C@H](NC(=O)NC6CC6)c6ccccc6)[nH]5)cc4)ccc3c2)c[nH]1)C(C)C [compound 24]	< 1
COC(=O)N[C@H](C(=O)N1CCC[C@H]1c1nc(-c2ccc3cc(-c4ccc(-c5cnc([C@@H]6CCCN6C(=O)[C@H](NC(=O)NC(C)(C)C)c6ccccc6)[nH]5)cc4)ccc3c2)c[nH]1)C(C)C [compound 25]	< 1
COC(=O)N[C@H](C(=O)N1CCC[C@H]1c1nc(-c2ccc3nc(-c4ccc(-c5cnc([C@@H]6CCCN6C(=O)[C@H](NC(=O)OC)c6ccccc6)[nH]5)cc4)ccc3c2)c[nH]1)C(C)C [compound 26]	< 1
CCNC(=O)N[C@@H](C(=O)N1CCC[C@H]1c1ncc(-c2ccc(-c3ccc4cc(-c5c[nH]c([C@@H]6CCCN6C(=O)[C@@H](NC(=O)OC)C(C)C)n5)ccc4c3)cc2)[nH]1)c1ccccc1 [compound 27]	< 1
CCNC(=O)N[C@@H](C(=O)N1CCC[C@H]1c1nc(-c2ccc3cc(-c4ccc(-c5cnc([C@@H]6CCCN6C(=O)[C@@H](NC(=O)OC)C(C)C)[nH]5)cc4)ccc3c2)c[nH]1)c1ccccc1 [compound 28]	< 1
COC(=O)N[C@H](C(=O)N1CCC[C@H]1c1ncc(-c2ccc(-c3ccc4cc(-c5c[nH]c([C@@H]6CCCN6C(=O)[C@H](NC(=O)NC6CC6)c6ccccc6)n5)ccc4c3)cc2)[nH]1)C(C)C [compound 29]	< 1
COC(=O)N[C@H](C(=O)N1CCC[C@H]1c1nc(-c2ccc3nc(-c4ccc(-c5cnc([C@@H]6CCCN6C(=O)[C@H](NC(=O)OC(C)(C)C)c6ccccc6)[nH]5)cc4)ccc3c2)c[nH]1)C(C)C [compound 30]	< 1

Same assay, conditions: Hepatitis C virus; Table 2; genotype 1b replicon, Huh 7 cells, 72 h, luciferase; read-out: Inhibition of HCV genotype 1b

Structure (SMILES)	EC50 [nM]
COC[C@H](NC(=O)OC)C(=O)N1CCOC[C@H]1c1ncc(-c2ccc3cc(-c4ccc(-c5cnc([C@@H]6CCCN6C(=O)[C@H](NC(=O)OC)c6ccccc6)[nH]5)cc4)ccc3c2)[nH]1 [325-1]	< 1
COC(=O)N[C@H](C(=O)N1CCC[C@H]1c1ncc(-c2ccc3cc(-c4ccc(-c5cnc([C@@H]6CCCN6C(=O)[C@H](NC(=O)OC)c6ccsc6)[nH]5)cc4)ccc3c2)[nH]1)[C@@H](C)OC [330-1]	< 1
COC(=O)N[C@H](C(=O)N1CCC[C@H]1c1ncc(-c2ccc3cc(-c4ccc(-c5cnc([C@@H]6CCCN6C(=O)[C@H](NC(=O)OC)c6cccs6)[nH]5)cc4)ccc3c2)[nH]1)[C@@H](C)OC [331-1]	< 1
COC[C@H](NC(=O)OC)C(=O)N1CCC[C@H]1c1ncc(-c2ccc3cc(-c4ccc5nc([C@@H]6CCCN6C(=O)[C@H](COC)NC(=O)OC)[nH]c5c4)ccc3c2)[nH]1 [345-1]	< 1
COC[C@H](NC(=O)OC)C(=O)N1CCC[C@H]1c1ncc(-c2ccc3cc(-c4ccc5nc([C@@H]6COCCN6C(=O)[C@H](COC)NC(=O)OC)[nH]c5c4)ccc3c2)[nH]1 [358-1]	< 1
